From patent publication US7956053B2, “Inhibitors of tyrosine kinases” (Novartis AG, priority 2002, dated 2011) come the findings set out here.

One assay has as its target KDR (Homo sapiens, UniProt P35968). As to the kind of experiment: Enzymatic KDR in vitro inhibition. The class given is biochemical. Here is the method:
Test for activity against VEGF-receptor tyrosine kinase. The test is conducted using Flt-1 VEGF-receptor tyrosine kinase. The detailed procedure is as follows: 30 μL kinase solution (10 ng of the kinase domain of Flt-1, Shibuya et al., Oncogene 5, 519-24 [1990]) in 20 mM Tris.HCl pH 7.5, 3 mM manganese dichloride (MnCl2), 3 mM magnesium chloride (MgCl2), 10 μM sodium vanadate, 0.25 mg/mL polyethylenglycol (PEG) 20000, 1 mM dithiothreitol and 3 μg/μL poly(Glu,Tyr) 4:1 (Sigma, Buchs, Switzerland), 8 μM [^33P]-ATP (0.2 μCi), 1% DMSO, and 0 to 100 μM of the compound to be tested are incubated together for 10 minutes at room temperature. The reaction is then terminated by the addition of 10 μL 0.25 M ethylenediaminetetraacetate (EDTA) pH 7. Using a multichannel dispenser (LAB SYSTEMS, USA), an aliquot of 20 μL is applied to a PVDF (=polyvinyl difluoride) Immobilon P membrane (Millipore, Bedford, USA), through a Gibco-BRL microtiter filter manifold and connected to a vacuum. Following complete elimination of the liquid, the membrane is washed 4 times successively in a bath containing 0.5% phosphoric acid (H3PO4) and once with ethanol, incubated for 10 minutes each time while shaking, then mounted in a Hewlett Packard TopCount Manifold and the radioactivity measured after the addition of 10 μL Microscint® (β-scintillation counter liquid). IC50-values are determined by linear regression analysis of the percentages for the inhibition of each compound in at least four concentrations (as a rule 0.01, 0.1, 1.0 and 10 μmol).
(§1) Enzymatic (c-Abl, KDR, Flt3) in vitro inhibition data are presented as % inhibition at 10 μM. The measurements are made as described above in the general description.

For a further assay, the target named is T1, c-Abl (Homo sapiens, UniProt P00519).
T1 construct: The His-tagged kinase domain of c-Abl is cloned and expressed in the baculovirus/Sf9 system; His; made in house; host or cells: baculovirus/Sf9
T1 sequence (P00519 242-493 limits assumed): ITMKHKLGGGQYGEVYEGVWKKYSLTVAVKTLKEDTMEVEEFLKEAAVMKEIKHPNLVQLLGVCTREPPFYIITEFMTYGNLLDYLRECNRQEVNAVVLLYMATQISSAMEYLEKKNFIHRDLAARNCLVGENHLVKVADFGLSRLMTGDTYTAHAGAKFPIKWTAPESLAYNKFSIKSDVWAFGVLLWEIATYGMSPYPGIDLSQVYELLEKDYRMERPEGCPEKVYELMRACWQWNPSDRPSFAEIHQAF
As to the kind of experiment: Test for activity against c-Abl protein tyrosine kinase (filter binding assay). The class given is biochemical. Here is the method: Test for activity against c-Abl protein tyrosine kinase. The test is conducted as a filter binding assay as follows: The His-tagged kinase domain of c-Abl is cloned and expressed in the baculovirus/Sf9 system as described by Bhat et al., J Biol. Chem. 272, 16170-5 (1997). A protein of 37 kD (c-Abl kinase) is purified by a two-step procedure over a Cobalt metal chelate column followed by an anion exchange column with a yield of 1-2 mg/L of Sf9 cells. The purity of the c-Abl kinase is >90% as judged by SDS-PAGE after Coomassie blue staining. The assay contains: c-Abl kinase (50 ng), 20 mM Tris.HCl, pH 7.5, 10 mM MgCl2, 10 μM Na3VO4, 1 mM DTT and 0.06 μCi/assay [γ^33 P]-ATP (5 μM ATP) using 30 μg/mL poly-Ala,Glu,Lys,Tyr-6:2:5:1 (Poly-AEKY, Sigma P1152) in the presence of 1% DMSO, total volume of 30 μL. Reactions are terminated by adding 10 μL of 250 mM EDTA, and 30 μL of the reaction mixture is transferred onto Immobilon-PVDF membrane (Millipore, Bedford, Mass., USA) previously soaked for 5 min with methanol, rinsed with water, then soaked for 5 min with 0.5% H3PO4 and mounted on vacuum manifold with disconnected vacuum source. After spotting all samples, vacuum is connected and each well rinsed with 200 μL 0.5% H3PO4. Membranes are removed and washed on a shaker with 0.5% H3PO4 (4 times) and once with ethanol. Membranes are counted after drying at ambient temperature, mounting in Packard TopCount 96-well frame, and addition of 10 μL/well of Microscint™ (Packard).
as §1

Broadly, the inhibition is how much of the control response was suppressed.

Sequence of KDR (P35968 20-1356): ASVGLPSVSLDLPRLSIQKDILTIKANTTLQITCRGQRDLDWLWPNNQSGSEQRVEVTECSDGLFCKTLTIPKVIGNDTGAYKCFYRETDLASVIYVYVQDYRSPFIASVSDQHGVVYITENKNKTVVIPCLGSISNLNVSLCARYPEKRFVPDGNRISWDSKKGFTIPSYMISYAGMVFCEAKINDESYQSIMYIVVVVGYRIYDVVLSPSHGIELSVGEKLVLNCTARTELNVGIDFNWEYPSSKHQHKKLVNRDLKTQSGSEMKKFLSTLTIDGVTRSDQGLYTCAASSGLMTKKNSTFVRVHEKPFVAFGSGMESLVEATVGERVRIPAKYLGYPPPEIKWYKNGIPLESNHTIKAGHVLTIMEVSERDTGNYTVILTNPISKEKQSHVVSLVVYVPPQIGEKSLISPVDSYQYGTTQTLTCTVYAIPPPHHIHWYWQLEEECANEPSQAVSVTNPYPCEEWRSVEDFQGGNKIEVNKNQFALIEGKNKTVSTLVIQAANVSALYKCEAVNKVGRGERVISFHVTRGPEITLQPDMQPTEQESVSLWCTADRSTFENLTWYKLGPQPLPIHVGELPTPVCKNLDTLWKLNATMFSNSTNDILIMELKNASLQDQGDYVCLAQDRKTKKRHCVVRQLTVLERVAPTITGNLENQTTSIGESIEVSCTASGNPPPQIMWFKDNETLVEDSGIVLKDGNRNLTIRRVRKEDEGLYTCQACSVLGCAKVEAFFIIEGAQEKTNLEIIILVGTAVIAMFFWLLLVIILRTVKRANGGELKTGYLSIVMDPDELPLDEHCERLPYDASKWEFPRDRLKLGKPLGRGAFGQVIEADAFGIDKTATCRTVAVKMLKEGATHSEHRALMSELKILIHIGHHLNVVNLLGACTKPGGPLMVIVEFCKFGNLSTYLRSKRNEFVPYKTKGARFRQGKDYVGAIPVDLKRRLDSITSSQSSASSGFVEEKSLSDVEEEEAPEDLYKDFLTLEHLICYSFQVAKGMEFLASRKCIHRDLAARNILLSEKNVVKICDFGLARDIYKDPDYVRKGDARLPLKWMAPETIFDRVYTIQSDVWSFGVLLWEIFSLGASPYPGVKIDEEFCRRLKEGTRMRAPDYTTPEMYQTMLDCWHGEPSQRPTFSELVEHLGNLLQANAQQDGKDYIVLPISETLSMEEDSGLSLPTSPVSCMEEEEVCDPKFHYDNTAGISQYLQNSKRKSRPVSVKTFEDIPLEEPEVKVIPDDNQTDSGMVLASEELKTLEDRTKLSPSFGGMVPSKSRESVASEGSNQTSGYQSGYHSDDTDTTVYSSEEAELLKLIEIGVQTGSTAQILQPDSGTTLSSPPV

On to “4-Methyl-N-[(5-methylpyrazinyl)methyl]-3-[[4-(3-pyridinyl)-2-pyrimidinyl]amino]benzamide [Example 55]”, for which the “KDR %@10 μM” value on KDR (% inhibition at 10 μM) is recorded as 54%. The “Abl %@10 μM” value at c-Abl (% inhibition at 10 μM) stood at 43%.

Consider `Cc1ccc(C(=O)NCc2ccco2)cc1Nc1nccc(-c2cccnc2)n1` [Example 1, N-(2-Furanylmethyl)-4-methyl-3-[[4-(3-pyridinyl)-2-Pyrimidinyl]amino]benzamide], for which the figures for the inhibition at 10 µM against KDR and on c-Abl were 57% and 51%, respectively.

As for `Cc1ccc(C(=O)Nc2ccc(CN3CCN(C)CC3)cc2)cc1Nc1nccc(-c2cccnc2)n1` [Example 2, N-[4-Methyl-3-[[4-(3-pyridinyl)-2-pyrimidinyl]amino]benzoyl]-4-[(4-methyl-1-piperazinyl)methyl]benzeneamine], the inhibition at 10 µM on KDR amounted to 73%; at c-Abl, 97%.

Turning to `Cc1ccc(C(=O)N2CCN(c3ccccn3)CC2)cc1Nc1nccc(-c2cccnc2)n1` [Example 3, 1-[4-Methyl-3-[[4-(3-pyridinyl)-2-pyrimidinyl]amino]benzoyl]-4-(2-pyridinyl)piperazine], the inhibition at 10 µM is 71% against KDR and 66% at c-Abl.

In the case of `Cc1ccc(C(=O)NCCc2ccccn2)cc1Nc1nccc(-c2cccnc2)n1` [Example 4, 4-Methyl-N-[2-(2-pyridinyl)ethyl]-3-[[4-(3-pyridinyl)-2-pyrimidinyl]amino]-benzamide], the inhibition at 10 µM amounted to 46% at KDR and 77% on c-Abl.

Regarding `Cc1ccc(C(=O)NC2CCN(Cc3ccccc3)CC2)cc1Nc1nccc(-c2cccnc2)n1` [Example 5, 4-Methyl-N-[1-(phenylmethyl)-4-piperidinyl]-3-[[4-(3-pyridinyl)-2-pyrimidinyl]amino]benzamide], the inhibition at 10 µM was 60% against KDR and 71% at c-Abl.

As for `Cc1ccc(C(=O)NCc2ccncc2)cc1Nc1nccc(-c2cccnc2)n1` [Example 6, 4-Methyl-N-(4-pyridinylmethyl)-3-[[4-(3-pyridinyl)-2-pyrimidinyl]amino]benzamide], the inhibition at 10 µM is 56% against KDR and 51% on c-Abl.

Take `Cc1ccc(C(=O)NCCc2cccn2C)cc1Nc1nccc(-c2cccnc2)n1` [Example 7, 4-Methyl-N-[2-(1-methyl-1H-pyrrol-2-yl)ethyl]-3-[[4-(3-pyridinyl)-2-pyrimidinyl]amino]benzamide]: the inhibition at 10 µM against KDR turned out to be 45%; on c-Abl, 72%.

In the case of `COc1ccc(CNC(=O)c2ccc(C)c(Nc3nccc(-c4cccnc4)n3)c2)cc1` [Example 8, N-[(4-Methoxyphenyl)methyl]-4-methyl-3-[[4-(3-pyridinyl)-2-pyrimidinyl]amino]benzamide], the values for the inhibition at 10 µM against KDR and on c-Abl were 81% and 70%, respectively.

On to `Cc1ccc(C(=O)NCC(C)C)cc1Nc1nccc(-c2cccnc2)n1` [Example 9, 4-Methyl-N-(2-methylpropyl)-3-[[4-(3-pyridinyl)-2-pyrimidinyl]amino]benzamide], for which the inhibition at 10 µM on KDR is 39%; on c-Abl, 44%.

With `Cc1ccc(C(=O)NCCN2CCOCC2)cc1Nc1nccc(-c2cccnc2)n1` [Example 10, 4-Methyl-N-(2-morpholinoethyl)-3-[[4-(3-pyridinyl)-2-pyrimidinyl]amino]-benzamide], the results for the inhibition at 10 µM against KDR and on c-Abl were 48% and 57%, respectively.

On to `Cc1ccc(C(=O)NCC2CCCO2)cc1Nc1nccc(-c2cccnc2)n1` (stereo not drawn) [Example 11, 4-Methyl-3-[[4-(3-pyridinyl)-2-pyrimidinyl]amino]-N-[(tetrahydro-2-furanyl)methyl]benzamide], for which the inhibition at 10 µM came out at 41% against KDR and 53% on c-Abl.

As for `Cc1ccc(C(=O)NCCc2cnc(O)nc2O)cc1Nc1nccc(-c2cccnc2)n1` [Example 12, N-[2-(2,4-Dihydroxy-5-pyrimidinyl)ethyl]-4-methyl-3-[[4-(3-pyridinyl)-2-pyrimidinyl]amino]benzamide], the inhibition at 10 µM against KDR came to 33%; on c-Abl it was 22%.

Consider `Cc1ccc(C(=O)NC2CCCCC2)cc1Nc1nccc(-c2cccnc2)n1` [Example 13, N-Cyclohexyl-4-methyl-3-[[4-(3-pyridinyl)-2-pyrimidinyl]amino]benzamide], for which the results for the inhibition at 10 µM against KDR and on c-Abl were 48% and 78%, respectively.

For the molecule `Cc1ccc(C(=O)N[C@H]2CCCCNC2=O)cc1Nc1nccc(-c2cccnc2)n1` [Example 14, N-[(3S)-Hexahydro-2-oxo-1H-azepin-3-yl]-4-methyl-3-[[4-(3-pyridinyl)-2-pyrimidinyl]amino]benzamide], the figures for the inhibition at 10 µM at KDR and at c-Abl were 54% and 49%, respectively.

For the molecule `COc1ccc(CCNC(=O)c2ccc(C)c(Nc3nccc(-c4cccnc4)n3)c2)cc1OC` [Example 15, N-[2-(3,4-Dimethoxyphenyl)ethyl]-4-methyl-3-[[4-(3-pyridinyl)-2-pyrimidinyl]amino]benzamide], the inhibition at 10 µM at KDR came out at 23%; at c-Abl, 60%.

As for `CCOC(=O)Cc1csc(NC(=O)c2ccc(C)c(Nc3nccc(-c4cccnc4)n3)c2)n1` [Example 16, 2-[[4-Methyl-3-[[4-(3-pyridinyl)-2-pyrimidinyl]amino]benzoyl]amino]-4-thiazoleacetic acid ethyl ester], the inhibition at 10 µM against KDR is 10%; at c-Abl, 42%.

Regarding `Cc1ccc(C(=O)NCCCn2ccnc2)cc1Nc1nccc(-c2cccnc2)n1` [Example 17, N-[3-(1H-Imidazol-1-yl)propyl]-4-methyl-3-[[4-(3-pyridinyl)-2pyrimidinyl]amino]benzamide], the results for the inhibition at 10 µM against KDR and on c-Abl were 62% and 54%, respectively.

In the case of `Cc1ccc(C(=O)NCC2CC2)cc1Nc1nccc(-c2cccnc2)n1` [Example 18, N-(Cyclopropylmethyl)-4-methyl-3-[[4-(3-pyridinyl)-2-pyrimidinyl]amino]-benzamide], the figures for the inhibition at 10 µM against KDR and on c-Abl were 62% and 56%, respectively.

Turning to `COCCNC(=O)c1ccc(C)c(Nc2nccc(-c3cccnc3)n2)c1` [Example 19, N-(2-methoxyethyl)-4-methyl-3-[[4-(3-pyridinyl)-2-pyrimidinyl]amino]benzamide], the inhibition at 10 µM at KDR stood at 33%; on c-Abl it was 41%.

In the case of `Cc1ccc(C(=O)NCCCN2CCCC2=O)cc1Nc1nccc(-c2cccnc2)n1` [Example 20, 4-Methyl-N-[3-(2-oxo-1-pyrrolidinyl)propyl]-3-[[4-(3-pyridinyl)-2-pyrimidinyl]amino]benzamide], the inhibition at 10 µM at KDR was 22%; at c-Abl, 56%.

`Cc1ccc(C(=O)N(C)Cc2ccccc2)cc1Nc1nccc(-c2cccnc2)n1` [Example 21, N,4-Dimethyl-N-(phenylmethyl)-3-[[4-(3-pyridinyl)-2-pyrimidinyl]amino]-benzamide]: the inhibition at 10 µM is 93% on KDR and 30% on c-Abl.

Regarding `Cc1ccc(C(=O)NCc2ccc(S(N)(=O)=O)cc2)cc1Nc1nccc(-c2cccnc2)n1` [Example 29, N-[[4-(Aminosulfonyl)phenyl]methyl]-4-methyl-3-[[4-(3-pyridinyl)-2-pyrimidinyl]amino]benzamide], testing at 10 µM on c-Abl gave an inhibition of 78%.
